Data: EP0108170A1, “3-Benzazepines as alpha-2 antagonists” (SMITHKLINE BECKMAN CORPORATION, priority 1982, dated 1984)

How the values were obtained:
[1] = tested on: alpha2; assay: prejunctional alpha2 antagonist activity, isolated superfused guinea pig left atrium (shift of clonidine concentration-response curve); format: cell-based
Description: Briefly, the heart is removed from a pentobarbital-anesthetized male guinea pig. The left atrium is removed, dissected free of extraneous tissue and mounted in a 2 ml. superfusion chamber. The tissue is paced at 60 pulse/minute and the sympathetic nerves excited at 6 minute intervals by field stimulation. The response to nerve stimulation is measured as the difference in contractile force between the basal contraction and peak contraction following a nerve stimulation. A concentration-response curve for clonidine (alpha2 agonist) is prepared by administering an increasing concentration of clonidine following each successive stimulation. The tissue is then superfused with the alpha2 antagonist to be tested for thirty minutes and the clonidine concentration-effect curve was repeated in the presence of antagonist. The receptor dissociation constant of the antagonist (KB) is defined as the antagonist concentration required to shift the log concentration-response curve of the agonist to the right by a factor of 2.

[2] = tested on: normotensive and hypertensive rats; assay: antihypertensive activity in vivo, blood pressure in conscious cannulated rats; conditions: for effect on diastolic blood pressure: i.v. administration
Description: Cannulas are run intradermally so as to be externalized in the dorso-sacral area of either side and kept in place by wound clips. The rats are allowed to regain consciousness after being placed in a small animal restrainer. The arterial cannula is connected to a pressure transducer for constant blood pressure and heart rate monitoring. Drugs are administered either orally via gavage or i.v. via the femoral vein cannula at a rate of 0.06 ml./minute.
The above test is conducted on both normotensive and hypertensive rats. DOCA Salt hypertensive rats are prepared from male uninephrectomized Sprague-Dawley rats. The rats, approximately six weeks of age, are lightly anesthetized with ether and subcutaneously implanted with a 25 mg. deoxycorticosterone acetate pellet in the left dorso-sacral area..Six days later a second pellet is implanted in the right dorso-sacral area. These rats are fed a normal laboratory diet, but are given 1% saline - solution to drink in place of water. The rats are kept on the saline drinking water for 22-24 days.
The following table sets forth the effect of 6-chloro-2,3,4,5-tetrahydro-3-methyl-lH-3-benzazepine on blood pressure after i.v. administration to both normotensive and hypertensive rats.

[3] = tested on: rabbit; assay: normal rabbit intraocular pressure determination (applanation pneumatonograph); format: in vivo; conditions: given systemically

CN1CCc2ccc(Cl)cc2CC1 [7-chloro-2,3,4,5-tetrahydro-3-methyl-lH-3-benzazepine, reference compound]
alpha2 antagonist activity relative to the 6-chloro derivative ([1]; fraction of the activity of the 6-chloro derivative): about one tenth

CN1CCc2cccc(Cl)c2CC1 [6-chloro-2,3,4,5-tetrahydro-3-methyl-lH-3-benzazepine]
effect on diastolic blood pressure ([2]; DOCA Salt hypertensive rats): marked drop | antihypertensive effect, dose dependence ([2]; comparison of the 0.5 mg./kg. and 1.0 mg./kg. doses, i.v.): dose- related | effect on diastolic blood pressure ([2]; normotensive rats): little effect | effect on diastolic blood pressure ([2]; spontaneously hypertensive rats): marked drop | effect on systemic blood pressure [3]: no significant effect | Kb ([1]; isolated perfused guinea pig left atrium, antagonist concentration shifting clonidine curve to the right by a factor of 2): 13 nM
